# Assay results published in patent publication US9539301B2, “Melanotropin ligands for skin care” (THE ARIZONA BOARD OF REGENTS ON BEHALF OF THE UNIVERSITY OF …, priority 2011, dated 2017).
# Entries after “also recorded” stand apart in the source; their conditions may differ. Square brackets hold non-standard residues; d marks the D form. Peptide text beside a SMILES is read from it. d2Nal = N[C@H](Cc1ccc2ccccc2c1)C(=O)O; Nle = CCCC[C@H](N)C(=O)O
# Tests used:
# MC1R = MC1R (Homo sapiens, UniProt Q01726); conditions: cited from earlier work
# Sequence of MC1R (Q01726 whole entry): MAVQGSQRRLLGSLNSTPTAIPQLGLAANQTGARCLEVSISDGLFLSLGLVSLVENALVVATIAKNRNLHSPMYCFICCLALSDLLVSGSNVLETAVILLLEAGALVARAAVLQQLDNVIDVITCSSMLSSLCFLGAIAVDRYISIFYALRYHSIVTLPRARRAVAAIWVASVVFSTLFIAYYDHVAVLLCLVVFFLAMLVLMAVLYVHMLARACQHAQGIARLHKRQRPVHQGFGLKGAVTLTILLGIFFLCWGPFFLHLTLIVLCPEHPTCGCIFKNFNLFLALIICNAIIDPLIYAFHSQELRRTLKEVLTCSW
# A375/MC1R cells = assay: In vitro MC1R probe uptake study (fluorescence microscopy); type: cell-based, human
# Description: Samples were viewed using an Axio Observer Z1 inverted fluorescence microscope (Carl Zeiss, Inc, Germany) using 40×/1.3NA oil immersion objectives through a narrow band Cy5 filter. Cy5 fluorescence images were prepared with a DIC overlay image using Axiovision 4.6 software (Carl Zeiss, Inc, Germany).
# To study uptake of the MC1R probe onto and into cells, MC1RL-800 probe was incubated with live cells and images were acquired at different time-points after incubation using an inverted microscope.
# [1] = type: physicochemical; conditions: pH 7.4
# Description: The log of the octanol-water partition coefficient at pH 7.4 (log D7.4) was determined by miniaturised shake flask assay. Briefly, (200 µL to 1 mL) n-octanol (Sigam) was added to a solution of the test compound prepared in PBS (25 mM NaH2PO4/Na2HPO4 buffer, pH 7.4, Sigma, HPLC grade). Then, three different ratios of octanol to PBS buffer were prepared. The mixture was stirred in a vortex mixer at room temperature for 1 min and then two layers were separated by centrifuge. The concentration of compound in each layer was determined by HPLC (Poroshell 120 EC-C18 column) using (26% acetonitrile in water, 0.1% TFA) in 280 nm channel. All sample injections were performed 3 times, and the results were averaged to yield the final values.
# To measure lipophilicity of the probe, log D (distribution co-efficient) was determined.
# [2] = test system: A375/MC1R and A375 xenograft tumors; assay: Tumor xenograft fluorescence imaging, in vivo tumor targeting and blocking; parameters: species or system nu/nu mice
# Description: Female nu/nu mice 6-8 weeks old (Harlan Sprague Dawley, Inc., Indianapolis, Ind.) were injected subcutaneously (s.c.) with 1×10^6 MC1R expressing A375 cells in the right and the parental one in the left flank. Tumor volume was determined with calipers using the formula: volume=(length×width^2)/2. Once tumors reached 500-800 mm^3, 1 nmol/kg-30 nmol/kg of MC1R imaging probe in 100 µL sterile saline was injected into the tail vein. In vivo fluorescence images were acquired using the Optix-MX3 (Advance Research Technologies, Inc. a subsidiary of SoftScan Healthcare Group, Montreal, Canada). Animals were positioned on a heating pad and anesthetized using isoflurane (flow 2-2.5 l/min). Fluorescence images were acquired using a scan resolution of 1.5 mm and a 790-nm pulsed laser diode with 40 MHz frequency and 12-ns time window. Images were analyzed using Optix-MX3 Optiview Software (version 3.01). Autofluorescence background was subtracted by determining the mean tumor fluorescence signal prior to injection, then mean normalized intensity values were obtained within a ROI on these images.
# Tumors were excised and center slice of each tumor was imaged using both Optix-MX3 (as described above) and IVIS 200 imaging system (Caliper LifeSciences, MA). For IVIS 200 acquisitions, the standard ICG excitation and emission filter set was used for imaging. After imaging, the slices were fixed in formalin and embedded in paraffin for histology. Formalin fixed sections (5 µm) were stained with hematoxylin and eosin (H&E). […]
# To investigate tumor targeting of the probe in vivo, bilateral subcutaneous xenograft tumors were established with A375/MC1R engineered cells in the right flank, and A375 parental cells with relatively low MC1R expression in the left flank. After tumor growth to approximately 500-800 mm^3, MC1RL-800 was injected intravenously and fluorescence accumulation was monitored over time. […] IHC staining confirmed the high and low MC1R expression in the two tumor types, and areas with the highest IHC staining corresponded to areas with the highest fluorescence signal (FIG. 27B).
# [3] = mouse, in vivo
# Description: (§1) Tumors, kidneys and liver were excised, rinsed with PBS, blotted dry, and then imaged ex vivo with Optix-MX3 as described above. Images were analyzed as described above.
# (§2) The pharmacokinetics of probe uptake and clearance was also characterized using a three-compartment mathematical model, which includes tumor, kidney and mouse volumes, and assumes mass conservation of the ligand. This model was used to account for the interference of the tumor ligand release in the uptake and clearance dynamics of blood and kidneys.
# [4] = mouse, in vivo, iv, 5 nmol/kg
# Description: as §1, §2
# MC5R = MC5R (Homo sapiens, UniProt P33032); conditions: footnote: value denotes an EC50; read-out: EC50 MC5R (values derived from literature); cited from earlier work
# Sequence of MC5R (P33032 whole entry): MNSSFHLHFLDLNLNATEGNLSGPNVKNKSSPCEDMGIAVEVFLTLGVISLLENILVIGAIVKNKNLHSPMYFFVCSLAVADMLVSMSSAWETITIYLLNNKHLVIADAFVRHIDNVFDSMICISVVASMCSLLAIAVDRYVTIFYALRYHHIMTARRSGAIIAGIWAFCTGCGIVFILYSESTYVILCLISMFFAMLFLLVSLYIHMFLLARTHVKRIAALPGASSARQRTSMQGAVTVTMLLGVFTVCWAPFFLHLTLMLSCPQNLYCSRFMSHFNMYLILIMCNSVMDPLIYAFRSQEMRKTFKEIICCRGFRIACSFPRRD
# MC4R = MC4R (Homo sapiens, UniProt P32245); conditions: footnote: value denotes an EC50; read-out: EC50 MC4R (values derived from literature); cited from earlier work
# Sequence of MC4R (P32245 whole entry): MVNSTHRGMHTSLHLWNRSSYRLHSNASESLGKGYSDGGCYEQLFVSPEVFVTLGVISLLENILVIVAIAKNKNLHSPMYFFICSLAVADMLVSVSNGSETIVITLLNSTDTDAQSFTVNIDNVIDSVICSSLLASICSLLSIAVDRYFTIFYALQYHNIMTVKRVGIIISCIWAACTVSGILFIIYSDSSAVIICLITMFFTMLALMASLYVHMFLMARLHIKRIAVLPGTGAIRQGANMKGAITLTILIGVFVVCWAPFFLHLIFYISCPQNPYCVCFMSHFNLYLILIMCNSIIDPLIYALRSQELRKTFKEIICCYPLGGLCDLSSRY
# [5] = A375/MC1R cells, after incubation
# [6] = co-injection 0.25 μg NDP-a-MSH with 5 nmol/kg probe, 2 hr
smiles,measurement,setting,value
"NC(=O)[C@H](Cc1c[nH]c2ccccc12)NC(=O)[C@H](CCCN=C(N)N)NC(=O)[C@@H](Cc1ccccc1)NC(=O)[C@H](Cc1cnc[nH]1)NC(=O)CCCc1ccccc1 [Compound 1, 4-phenylbutyryl-His-DPhe-Arg-Trp-NH2]",Ki,MC1R; read-out: Ki MC1R (values derived from literature),0.01 nM
"CC1(C)C(=CC=C2CCCC(C=CC3=[N+](CCCCCC(=O)NCCN4C(=O)CC(SCCC(=O)NCCCC[C@H](NC(=O)CNC(=O)[C@H](Cc5c[nH]c6ccccc56)NC(=O)[C@H](CCCNC(=N)N)NC(=O)[C@@H](Cc5ccccc5)NC(=O)[C@H](Cc5c[nH]cn5)NC(=O)CCCc5ccccc5)C(N)=O)C4=O)c4ccc(S(=O)(=O)[O-])cc4C3(C)C)=C2Oc2ccc(S(=O)(=O)O)cc2)N(CCCCS(=O)(=O)O)c2ccc(S(=O)(=O)O)cc21 (stereo partly drawn) [MC1RL-800, 4-phenylbutyryl-His-DPhe-Arg-Trp-Gly-Lys(Mpr-IR800CW)-NH2]",probe binding after blocking with NDP-α-MSH,A375/MC1R cells; 2 μM NDP-α-MSH added before probe,No attachment; also recorded: No binding or uptake
same,time at which binding of probe to cell surface is observed,A375/MC1R cells; [5],≤ 15 s
same,time of intracellular accumulation / internalization,A375/MC1R cells; [5],≤ 5 min
same,logD,[1],-2.96
same,normalized fluorescence signal of A375 (low MC1R) tumors compared to A375/MC1R tumors,"[2]; 2 h post-injection, n=3",significantly lower
same,"decrease of probe fluorescence signal after blocking, A375/MC1R tumors",[2]; [6],1.54 fold
same,"decrease of probe fluorescence signal after blocking, A375 tumor",[2]; [6],1.4 fold
same,accumulation in the liver,[3],did not accumulate
same,kidney signal relative to tumor,[3],2 fold
same,half-life,[4],~10 h
"CCCC[C@H](NC(=O)[C@@H](NC(=O)[C@@H](N)Cc1ccc(O)cc1)C(C)C)C(=O)NCC(=O)N[C@@H](Cc1cnc[nH]1)C(=O)N[C@H](Cc1ccc2ccccc2c1)C(=O)N[C@@H](CCCNC(=N)N)C(=O)N[C@H](Cc1ccccc1)C(=O)N[C@@H](CC(=O)O)C(=O)N[C@@H](CCCNC(=N)N)C(=O)N[C@@H](Cc1ccccc1)C(=O)NCC(N)=O [Compound 7, H-Tyr-Val-Nle-Gly-His-DNal(2′)-Arg-DPhe-Asp-Arg-Phe-Gly-NH2] (H-YV[Nle]GH[d2Nal]R[dF]DRFG-NH2)",EC50,MC5R,3.3 nM
same,EC50,"MC1R; footnote: value denotes an EC50, read-out: EC50 MC1R (values derived from literature)",1.6 nM
same,EC50,MC4R,20 nM
